The values that follow come from the OligoGym collection.

HELM strings list units from the 5' end as sugar, base in round brackets, then linkage (d deoxyribose, r ribose, m 2'-O-methyl, p phosphodiester). Strings are as the collection lists them, not checked against the first reports. ss, as = sense and antisense strand; [s4r] = 4'-thioribose; [fl2r] = 2'-fluoro
Also: test system not given here.

The conditions of the data set: siRNA.
Consider “RNA1{r(G)p.r(A)p.r(A)p.r(G)p.r(A)p.r(U)p.r(A)p.r(G)p.r(G)p.r(A)p.r(A)p.r(G)p.r(G)p.r(G)p.r(G)p.r(C)p.r(U)p.r(U)p.r(C)p.r(T)p.r(T)}|RNA2{r(G)p.r(A)p.r(A)p.r(G)p.[fl2r](C)p.[fl2r](C)p.[fl2r](C)p.[fl2r](C)p.[fl2r](U)p.[fl2r](U)p.[fl2r](C)p.[fl2r](C)p.[fl2r](U)p.r(A)p.[fl2r](U)p.[fl2r](C)p.[fl2r](U)p.[fl2r](U)p.[fl2r](C)p.r(T)p.r(T)}$$$RNA1{StrandType:ss}|RNA2{StrandType:as}$”, for which the target mRNA knockdown amounted to 5%.

“RNA1{r(A)p.r(A)p.r(A)p.r(C)p.r(G)p.r(A)p.m(G)p.r(A)p.r(G)p.r(A)p.r(G)p.r(C)p.r(C)p.m(C)p.r(A)p.r(C)p.r(C)p.r(U)p.r(U)p.r(T)p.r(T)}|RNA2{r(A)p.r(A)p.r(G)p.r(G)p.m(U)p.m(G)p.r(G)p.r(G)p.r(C)p.r(U)p.r(C)p.r(U)p.r(C)p.r(U)p.r(C)p.r(G)p.r(U)p.r(U)p.r(U)p.r(T)p.r(T)}$$$RNA1{StrandType:ss}|RNA2{StrandType:as}$” had a target mRNA knockdown of 56%.

In turn, “RNA1{r(C)p.r(G)p.r(U)p.r(A)p.r(C)p.r(G)p.r(C)p.r(G)p.r(G)p.r(A)p.r(A)p.r(U)p.r(A)p.r(C)p.r(U)p.[s4r](U)p.[s4r](C)p.[s4r](G)p.[s4r](A)p.r(T)p.r(T)}|RNA2{r(U)p.r(C)p.r(G)p.r(A)p.r(A)p.r(G)p.r(U)p.r(A)p.r(U)p.r(U)p.r(C)p.r(C)p.r(G)p.r(C)p.r(G)p.r(U)p.r(A)p.r(C)p.r(G)p.r(T)p.r(T)}$$$RNA1{StrandType:ss}|RNA2{StrandType:as}$” had a target mRNA knockdown of 94.3%.

Regarding “RNA1{r(G)p.r(A)p.r(C)p.r(C)p.r(A)p.r(C)p.r(G)p.r(A)p.r(A)p.r(G)p.r(A)p.r(G)p.r(U)p.[fl2r](U)p.r(A)p.r(A)p.r(C)p.r(C)p.r(C)p.r(T)p.r(T)}|RNA2{r(G)p.r(G)p.r(G)p.r(U)p.[fl2r](U)p.r(A)p.r(A)p.r(C)p.r(U)p.r(C)p.r(U)p.r(U)p.r(C)p.r(G)p.r(U)p.r(G)p.r(G)p.r(U)p.r(C)p.r(T)p.r(T)}$$$RNA1{StrandType:ss}|RNA2{StrandType:as}$”, the target mRNA knockdown worked out at 82%.

As for “RNA1{r(A)p.m(G)p.r(A)p.m(U)p.r(G)p.m(U)p.m(U)p.m(C)p.m(U)p.m(C)p.r(G)p.m(U)p.r(A)p.r(A)p.m(G)p.r(G)p.r(A)p.m(C)p.r(G)p.r(T)p.r(T)}|RNA2{r(C)p.r(G)p.r(U)p.r(C)p.r(C)p.r(U)p.r(U)p.r(A)p.r(C)p.r(G)p.r(A)p.r(G)p.r(A)p.r(A)p.r(C)p.r(A)p.r(U)p.r(C)p.r(U)p.r(T)p.r(T)}$$$RNA1{StrandType:ss}|RNA2{StrandType:as}$”, the target mRNA knockdown came out at 53%.

Substance “RNA1{r(G)p.r(U)p.r(U)p.[fl2r](C)p.r(A)p.r(C)p.r(G)p.r(U)p.r(C)p.r(C)p.[fl2r](U)p.r(A)p.r(C)p.r(C)p.r(C)p.r(C)p.r(U)p.r(U)p.r(U)p.r(T)p.r(T)}|RNA2{r(A)p.r(A)p.r(A)p.r(G)p.r(G)p.r(G)p.r(G)p.[fl2r](U)p.r(A)p.r(G)p.r(G)p.r(A)p.r(C)p.r(G)p.[fl2r](U)p.r(G)p.r(A)p.r(A)p.r(C)p.r(T)p.r(T)}$$$RNA1{StrandType:ss}|RNA2{StrandType:as}$” showed a target mRNA knockdown of 65%.

In the case of “RNA1{[fl2r](G)p.m(A)p.[fl2r](C)p.m(G)p.[fl2r](U)p.m(A)p.[fl2r](A)p.m(A)p.[fl2r](C)p.m(G)p.[fl2r](G)p.m(C)p.[fl2r](C)p.m(A)p.[fl2r](C)p.m(A)p.[fl2r](A)p.m(G)p.[fl2r](U)p.m(U)p.[fl2r](C)}|RNA2{r(A)p.r(C)p.r(U)p.r(U)p.r(G)p.r(U)p.r(G)p.r(G)p.r(C)p.r(C)p.r(G)p.r(U)p.r(U)p.r(U)p.r(A)p.r(C)p.r(G)p.r(U)p.r(C)p.r(G)p.r(C)}$$$RNA1{StrandType:ss}|RNA2{StrandType:as}$”, the target mRNA knockdown was found to be 87.3%.
